Counter-ions that a name gives are not always drawn.
molecular target: T1, FLT3 (Homo sapiens, UniProt P36888); experiment: HTRF binding assay of FL to FLT3 (TR-FRET, SNAP-FLT3 transfected HEK293T cells); details: HEK293T cells transfected with SNAP-FLT3, labelled with SNAP-Lumi4-Tb; compounds 1 h at room temperature, then FL-d2 (0.5 nM), read after 20 h; 12 dilutions in triplicates, performed twice; read-out: Inhibition of FLT3 binding IC50, binding
T1 construct: expressed in transfected cells; host or cells: HEK293T
T1 sequence (P36888 27-993): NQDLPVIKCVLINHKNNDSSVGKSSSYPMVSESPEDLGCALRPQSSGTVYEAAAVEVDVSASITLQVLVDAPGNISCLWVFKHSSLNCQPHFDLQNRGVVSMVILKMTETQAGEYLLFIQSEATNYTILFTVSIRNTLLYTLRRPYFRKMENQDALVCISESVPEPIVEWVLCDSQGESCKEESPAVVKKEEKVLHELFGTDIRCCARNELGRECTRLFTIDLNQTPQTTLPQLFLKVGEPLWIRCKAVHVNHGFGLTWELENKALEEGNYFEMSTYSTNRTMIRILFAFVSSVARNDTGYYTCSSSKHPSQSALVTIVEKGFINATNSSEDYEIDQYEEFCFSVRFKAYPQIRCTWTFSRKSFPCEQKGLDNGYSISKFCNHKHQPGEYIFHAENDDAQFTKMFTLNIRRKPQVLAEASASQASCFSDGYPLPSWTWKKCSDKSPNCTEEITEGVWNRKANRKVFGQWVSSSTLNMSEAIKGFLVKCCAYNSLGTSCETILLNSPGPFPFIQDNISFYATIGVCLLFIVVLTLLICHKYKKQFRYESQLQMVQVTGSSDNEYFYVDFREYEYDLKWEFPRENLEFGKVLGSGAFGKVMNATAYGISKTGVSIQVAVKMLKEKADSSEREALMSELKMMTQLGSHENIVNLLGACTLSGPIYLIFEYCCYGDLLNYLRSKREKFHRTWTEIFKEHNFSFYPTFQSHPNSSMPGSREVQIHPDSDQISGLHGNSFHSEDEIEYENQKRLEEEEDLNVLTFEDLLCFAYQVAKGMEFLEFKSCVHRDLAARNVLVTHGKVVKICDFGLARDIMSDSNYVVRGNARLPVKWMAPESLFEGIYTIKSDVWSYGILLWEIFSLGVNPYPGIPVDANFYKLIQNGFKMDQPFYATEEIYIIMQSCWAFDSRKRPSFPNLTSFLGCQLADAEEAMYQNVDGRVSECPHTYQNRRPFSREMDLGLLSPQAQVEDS
Method: The binding of FL to FLT3 was measured by a Homologous Time-Resolved Fluorescence (HTRF) assay (Degorce et al., Current Chemical Genomics, 2009, 3, 22-32), which involves resonance energy transfer between a donor, Lumi4-Tb-donor-derivatized benzylguanine substrate (SNAP-Lumi4-Tb, excitation: 337 nm, emission: 630 nm, Cisbio, France), transfected in HEK cells, and an acceptor, red fluorescent FL (FL-d2, excitation: 620 nm, emission: 660 nm, Cisbio, France). When FL-d2 binds to the SNAP-Lumi4-Tb-tagged FLT3 receptor, the proximity of both fluorophores allows the time-resolved Förster resonance energy transfer (TR-FRET) signal to occur and the binding is measured as the ratio between the fluorescent emissions at 660 to 620 nm.
The detailed method is described in Rivat et al. (Nature Communications, 2018, 9 :1042). Briefly, HEK293T cells were transfected with a pCDNA3.1 SNAP-FLT3 plasmid by using Lipofectamine (Invitrogen), and were than labelled with SNAP-Lumi4-Tb. Plates containing attached transfected HEK293T cells were incubated with compounds of formula (I) for 1 h at room temperature. A series of 12 dilutions in triplicates was used for each compound and the experiment was performed twice. Then FL-d2 (0.5 nM) was added and the TR-FRET signal was read after 20 h incubation at room temperature with a HTRF-compatible reader (Envision, Perkin Elmer) allowing a donor excitation at 337 nm and a signal collection both at 615 nm and 665 nm (20 flashes, delay 50 µs, integration time 400 µs). Then HTRF ratio, obtained by dividing the acceptor signal (665 nm) by the donor signal (615 nm), was calculated at each concentration of test compounds. Non-specific binding was measured in the presence 50 µM of BDT001 (Rivat et al., ibid.). Concentration giving 50 % inhibition (IC50) were calculated by non-linear regression analysis for a one-site model, with variable slope (Prism®, Graphpad software, USA).

Row | Compound | IC50
1 | COc1cc(C2CCN(C)CC2)ccc1C(=O)Nc1cccc2cccnc12 [(16), 2-methoxy-4-(1-methylpiperidin-4-yl)-N-(quinolin-8-yl)benzamide] | 0.6 µM
2 | CN1CCC(c2ccc(C(=O)Nc3cccc4cccnc34)c(F)c2)CC1 [(12), 2-fluoro-4-(1-methylpiperidin-4-yl)-N-(quinolin-8-yl)benzamide] | 1.8 µM
3 | CN1CCN(c2ccc(C(=O)Nc3ccc(F)c4ncccc34)cc2)CC1 [(44), N-(8-fluoroquinolin-5-yl)-4-(4-methylpiperazin-1-yl)benzamide] | 3.8 µM
4 | CN1CCN(c2ccc(C(=O)Nc3cccc4ncccc34)cc2)CC1 [(40), 4-(4-methylpiperazin-1-yl)-N-(quinolin-5-yl)benzamide] | 1.7 µM
5 | CN(C)CCOc1ccc(C(=O)Nc2cccc3ncccc23)cc1 [(15), 4-(2-(dimethylamino)ethoxy)-N-(quinolin-5-yl)benzamide] | 1.7 µM
6 | CN1CCN(c2ccc(C(=O)Nc3ccc(C(F)(F)F)c4ccncc34)cc2)CC1 [(52), 4-(4-methylpiperazin-1-yl)-N-[5-(trifluoromethyl)isoquinolin-8-yl]benzamide hydrochloride] | 7.5 µM
7 | Cc1cc(C(=O)Nc2cccc3ncccc23)ccc1N1CCN(C)CC1 [(29), 3-methyl-4-(4-methylpiperazin-1-yl)-N-(quinolin-5-yl)benzamide] | 1.2 µM
8 | CN(C)CCOc1ccc(C(=O)Nc2cccc3cnncc23)cc1 [(19), 4-[2-(dimethylamino)ethoxy]-N-(phthalazin-5-yl)benzamide] | 25 µM
9 | CN1CCC(c2ccc(C(=O)Nc3cccc4cnccc34)cc2F)CC1 [(13), 3-fluoro-N-(isoquinolin-5-yl)-4-(1-methylpiperidin-4-yl)benzamide] | 1.4 µM
10 | COc1cc(C(=O)Nc2cccc3cnccc23)ccc1C1CCN(C)CC1 [(17), N-(isoquinolin-5-yl)-3-methoxy-4-(1-methylpiperidin-4-yl)benzamide] | 0.9 µM
11 | CN(C)CCOc1ccc(C(=O)Nc2ccc(Cl)c3ncccc23)cc1 [(32), N-(8-chloroquinolin-5-yl)-4-[2-(dimethylamino)ethoxy]benzamide] | 2.4 µM
12 | CN1CCN(c2ccc(C(=O)Nc3ccc(Cl)c4ncccc34)cc2)CC1 [(46), N-(8-chloroquinolin-5-yl)-4-(4-methylpiperazin-1-yl)benzamide] | 1 µM
13 | CN1CCC(c2ccc(C(=O)Nc3ccc(Cl)c4ncccc34)cc2)CC1 [(30), N-(8-chloroquinolin-5-yl)-4-(1-methylpiperidin-4-yl)benzamide] | 1.9 µM
14 | Cc1cc(C(=O)Nc2cccc3cccnc23)ccc1OCCN(C)C [(43), 4-(2-(dimethylamino)ethoxy)-3-methyl-N-(quinolin-8-yl)benzamide] | 2.1 µM
15 | CN1CCC(c2ccc(C(=O)Nc3cccc4ncccc34)cc2)CC1 [(6), 4-(1-methylpiperidin-4-yl)-N-(quinolin-5-yl)benzamide] | 1.3 µM
16 | CN(C)CCOc1ccc(C(=O)Nc2cccc3ccncc23)cc1 [(10), 4-[2-(dimethylamino)ethoxy]-N-(isoquinolin-8-yl)benzamide] | 0.8 µM
17 | CN1CCN(c2ccc(C(=O)Nc3cccc4cccnc34)cc2)CC1 [(35), 4-(4-methylpiperazin-1-yl)-N-(quinolin-8-yl)benzamide] | 1.7 µM
18 | CN(C)CCOc1ccc(C(=O)Nc2cccc3nccnc23)cc1 [(31), 4-[2-(dimethylamino)ethoxy]-N-(quinoxalin-5-yl)benzamide] | 0.7 µM
19 | CN1CCC(c2ccc(C(=O)Nc3ccc(F)c4ccncc34)cc2)CC1 [(3), N-(5-fluoroisoquinolin-8-yl)-4-(1-methylpiperidin-4-yl)benzamide] | 1.8 µM
20 | CN(C)CCOc1ccc(C(=O)Nc2cccc3cccnc23)cc1 [(11), 4-[2-(dimethylamino)ethoxy]-N-(quinolin-8-yl)benzamide] | 2.9 µM
21 | CN1CCN(c2ccc(C(=O)Nc3cccc4cnccc34)cc2F)CC1 [(24), 3-fluoro-N-(isoquinolin-5-yl)-4-(4-methylpiperazin-1-yl)benzamide] | 1.1 µM

Source: patent publication EP4353712A1 (Biodol Therapeutics, priority 2022, dated 2024)
